Here are results for 20 substances from the OligoGym collection.

Values joined by “and” are separate entries in the source; they are usually repeats but may differ in a detail not shown here. Equal entries are not always repeated. HELM strings list units from the 5' end as sugar, base in round brackets, then linkage (d deoxyribose, r ribose, m 2'-O-methyl, p phosphodiester). Strings are as the collection lists them, not checked against the first reports. ss, as = sense and antisense strand; [lna] = locked nucleic acid (LNA); [una] = unlocked nucleic acid; [hna] = hexitol nucleic acid; [s4r] = 4'-thioribose; [fl2r] = 2'-fluoro
Further: test system not given here.

For the data set the following is noted: siRNA.
For “RNA1{r(C)p.r(U)p.m(C)p.r(A)p.r(A)p.r(A)p.r(U)p.m(C)p.r(A)p.r(A)p.r(G)p.r(G)p.r(C)p.r(C)p.r(G)p.r(G)p.r(A)p.r(G)p.r(U)p.r(T)p.r(T)}|RNA2{r(A)p.r(C)p.r(U)p.r(C)p.r(C)p.r(G)p.r(G)p.r(C)p.r(C)p.r(U)p.m(U)p.r(G)p.r(A)p.r(U)p.r(U)p.m(U)p.r(G)p.r(A)p.r(G)p.r(T)p.r(T)}$$$RNA1{StrandType:ss}|RNA2{StrandType:as}$”, the target mRNA knockdown was 82%.
In the case of “RNA1{r(A)p.r(C)p.r(C)p.r(G)p.r(A)p.r(C)p.r(G)p.r(A)p.r(U)p.r(U)p.r(C)p.r(U)p.r(U)p.r(C)p.r(U)p.r(A)p.r(C)p.r(U)p.r(C)p.r(T)p.r(T)}|RNA2{r(G)p.r(A)p.r(G)p.m(U)p.r(A)p.r(G)p.r(A)p.r(A)p.r(G)p.r(A)p.r(A)p.r(U)p.r(C)p.r(G)p.r(U)p.r(C)p.r(G)p.r(G)p.r(U)p.r(T)p.r(T)}$$$RNA1{StrandType:ss}|RNA2{StrandType:as}$” it was 68%.
Under “RNA1{r(A)p.r(A)p.r(G)p.r(G)p.r(A)p.r(A)p.r(C)p.r(G)p.r(G)p.r(G)p.r(G)p.r(A)p.r(C)p.r(A)p.r(C)p.r(U)p.r(U)p.r(A)p.r(C)p.r(T)p.r(T)}|RNA2{r(G)p.m(U)p.r(A)p.r(A)p.r(G)p.r(U)p.r(G)p.r(U)p.r(C)p.r(C)p.r(C)p.r(C)p.r(G)p.r(U)p.r(U)p.r(C)p.r(C)p.r(U)p.r(U)p.r(T)p.r(T)}$$$RNA1{StrandType:ss}|RNA2{StrandType:as}$” stands 38%; under “RNA1{r(A)p.r(A)p.r(G)p.r(G)p.r(C)p.r(C)p.r(A)p.r(A)p.r(C)p.r(C)p.r(G)p.r(A)p.[fl2r](U)p.r(A)p.r(C)p.r(U)p.r(U)p.r(C)p.r(U)p.r(T)p.r(T)}|RNA2{r(A)p.r(G)p.r(A)p.r(A)p.r(G)p.[fl2r](U)p.r(A)p.r(U)p.r(C)p.r(G)p.r(G)p.r(U)p.r(U)p.r(G)p.r(G)p.r(C)p.r(C)p.r(U)p.r(U)p.r(T)p.r(T)}$$$RNA1{StrandType:ss}|RNA2{StrandType:as}$”, 69%; under “RNA1{r(G)p.r(G)p.r(A)p.r(G)p.m(C)p.r(A)p.r(C)p.r(G)p.r(C)p.r(U)p.m(U)p.r(A)p.r(C)p.m(U)p.r(A)p.r(C)p.r(C)p.r(U)p.r(U)p.r(T)p.r(T)}|RNA2{r(A)p.r(A)p.r(G)p.r(G)p.m(U)p.r(A)p.r(G)p.m(U)p.r(A)p.r(A)p.r(G)p.r(C)p.r(G)p.m(U)p.r(G)p.r(C)p.r(U)p.r(C)p.r(C)p.r(T)p.r(T)}$$$RNA1{StrandType:ss}|RNA2{StrandType:as}$”, 68%.
In the case of “RNA1{r(C)p.r(U)p.[fl2r](A)p.r(G)p.r(A)p.r(G)p.r(G)p.r(A)p.r(U)p.r(C)p.r(U)p.r(U)p.r(G)p.r(A)p.r(A)p.r(G)p.r(A)p.r(C)p.r(C)p.r(T)p.r(T)}|RNA2{r(G)p.r(G)p.r(U)p.r(C)p.r(U)p.r(U)p.r(C)p.r(A)p.r(A)p.r(G)p.r(A)p.r(U)p.r(C)p.r(C)p.r(U)p.r(C)p.[fl2r](U)p.r(A)p.r(G)p.r(T)p.r(T)}$$$RNA1{StrandType:ss}|RNA2{StrandType:as}$” it was 82%; in that of “RNA1{r(A)p.r(C)p.r(G)p.r(U)p.m(C)p.r(A)p.r(C)p.r(C)p.r(G)p.r(A)p.r(G)p.r(G)p.r(A)p.r(G)p.r(A)p.r(A)p.r(G)p.m(U)p.m(A)p.r(T)p.r(T)}|RNA2{m(U)p.m(A)p.r(C)p.r(U)p.r(U)p.r(C)p.r(U)p.r(C)p.r(C)p.r(U)p.r(C)p.r(G)p.r(G)p.m(U)p.r(G)p.r(A)p.r(C)p.r(G)p.r(U)p.r(T)p.r(T)}$$$RNA1{StrandType:ss}|RNA2{StrandType:as}$”, 74%.
With “RNA1{[hna](G)p.[hna](A)p.[hna](C)p.r(G)p.r(U)p.r(A)p.r(A)p.r(A)p.r(C)p.r(G)p.r(G)p.r(C)p.r(C)p.r(A)p.r(C)p.r(A)p.r(A)p.[hna](G)p.[hna](U)p.[hna](U)p.d(T)}|RNA2{r(A)p.m(C)p.r(U)p.r(U)p.r(G)p.r(U)p.r(G)p.r(G)p.r(C)p.r(C)p.r(G)p.r(U)p.r(U)p.r(U)p.r(A)p.r(C)p.r(G)p.r(U)p.r(C)p.r(G)p.r(C)}$$$RNA1{StrandType:ss}|RNA2{StrandType:as}$”, the target mRNA knockdown came to 84%.
Under “RNA1{r(A)p.r(G)p.r(A)p.r(A)p.r(A)p.m(C)p.r(G)p.m(C)p.r(A)p.r(G)p.m(U)p.r(A)p.r(A)p.m(U)p.m(C)p.m(C)p.r(G)p.r(G)p.r(A)p.r(T)p.r(T)}|RNA2{m(U)p.m(C)p.m(C)p.r(G)p.r(G)p.r(A)p.m(U)p.m(U)p.r(A)p.m(C)p.m(U)p.r(G)p.m(C)p.r(G)p.m(U)p.m(U)p.m(U)p.m(C)p.m(U)p.r(T)p.r(T)}$$$RNA1{StrandType:ss}|RNA2{StrandType:as}$” stands 80%; under “RNA1{r(A)p.r(A)p.r(A)p.r(C)p.[fl2r](C)p.[fl2r](A)p.r(G)p.r(G)p.[fl2r](A)p.r(A)p.r(G)p.[fl2r](G)p.r(G)p.r(G)p.r(A)p.r(A)p.r(A)p.r(U)p.r(C)p.r(T)p.r(T)}|RNA2{r(G)p.r(A)p.r(U)p.r(U)p.r(U)p.r(C)p.r(C)p.r(C)p.r(C)p.r(U)p.r(U)p.r(C)p.r(C)p.[fl2r](U)p.[fl2r](G)p.r(G)p.r(U)p.r(U)p.r(U)p.r(T)p.r(T)}$$$RNA1{StrandType:ss}|RNA2{StrandType:as}$”, 61%; under “RNA1{r(A)p.m(C)p.r(A)p.r(G)p.r(A)p.r(A)p.r(A)p.r(G)p.r(A)p.r(G)p.r(U)p.r(U)p.r(C)p.r(G)p.r(A)p.r(G)p.r(G)p.r(A)p.r(G)p.r(T)p.r(T)}|RNA2{r(C)p.r(U)p.r(C)p.r(C)p.r(U)p.r(C)p.r(G)p.r(A)p.r(A)p.r(C)p.r(U)p.r(C)p.r(U)p.r(U)p.r(U)p.r(C)p.m(U)p.r(G)p.r(U)p.r(T)p.r(T)}$$$RNA1{StrandType:ss}|RNA2{StrandType:as}$”, 64%.
In the case of “RNA1{[s4r](A)p.[s4r](A)p.r(A)p.r(C)p.r(A)p.r(U)p.r(G)p.r(C)p.r(A)p.r(G)p.r(A)p.r(A)p.r(A)p.r(A)p.r(U)p.r(G)p.r(C)p.r(U)p.r(G)p.r(T)p.r(T)}|RNA2{r(C)p.r(A)p.r(G)p.r(C)p.r(A)p.r(U)p.r(U)p.r(U)p.r(U)p.r(C)p.r(U)p.r(G)p.r(C)p.r(A)p.r(U)p.[s4r](G)p.[s4r](U)p.[s4r](U)p.[s4r](U)p.r(T)p.r(T)}$$$RNA1{StrandType:ss}|RNA2{StrandType:as}$” it was 70.9%; in that of “RNA1{r(G)p.r(G)p.r(A)p.r(C)p.r(A)p.r(U)p.r(U)p.r(C)p.r(A)p.r(G)p.r(A)p.r(A)p.r(C)p.r(A)p.r(A)p.r(G)p.r(A)p.r(A)p.r(A)p.[una](U)p.[una](U)}|RNA2{r(U)p.r(U)p.r(U)p.[una](C)p.r(U)p.r(U)p.r(G)p.r(U)p.r(U)p.r(C)p.r(U)p.r(G)p.r(A)p.r(A)p.r(U)p.r(G)p.r(U)p.r(C)p.r(C)p.[una](U)p.[una](U)}$$$RNA1{StrandType:ss}|RNA2{StrandType:as}$”, 50%; in that of “RNA1{r(A)p.r(G)p.r(A)p.r(G)p.r(G)p.r(A)p.r(C)p.r(C)p.m(U)p.r(A)p.r(G)p.r(A)p.r(A)p.r(G)p.r(G)p.r(C)p.r(G)p.r(G)p.r(C)p.r(T)p.r(T)}|RNA2{r(G)p.r(C)p.r(C)p.r(G)p.r(C)p.r(C)p.m(U)p.m(U)p.r(C)p.m(U)p.r(A)p.r(G)p.r(G)p.m(U)p.r(C)p.r(C)p.m(U)p.r(C)p.m(U)p.r(T)p.r(T)}$$$RNA1{StrandType:ss}|RNA2{StrandType:as}$”, 72%.
In the case of “RNA1{r(C)p.r(U)p.r(U)p.r(A)p.r(C)p.r(G)p.r(C)p.r(U)p.r(G)p.r(A)p.r(G)p.r(U)p.r(A)p.r(C)p.r(U)p.r(U)p.r(C)p.r(G)p.r(A)p.d(T)p.d(T)}|RNA2{[lna](T)p.r(C)p.r(G)p.r(A)p.r(A)p.r(G)p.r(U)p.r(A)p.r(C)p.r(U)p.r(C)p.r(A)p.r(G)p.r(C)p.r(G)p.r(U)p.r(A)p.r(A)p.r(G)p.[lna](T)p.[lna](T)}$$$RNA1{StrandType:ss}|RNA2{StrandType:as}$” it was 55%.
“RNA1{r(G)p.r(U)p.r(A)p.r(U)p.r(G)p.r(A)p.r(C)p.r(C)p.r(G)p.r(A)p.r(C)p.r(U)p.r(A)p.r(C)p.r(G)p.r(C)p.r(G)p.r(U)p.r(A)p.r(T)p.r(T)}|RNA2{r(U)p.r(U)p.r(C)p.r(A)p.r(G)p.[una](U)p.r(G)p.r(U)p.r(G)p.r(A)p.r(U)p.r(G)p.r(A)p.r(C)p.r(A)p.r(C)p.r(U)p.r(U)p.r(G)p.r(T)p.r(T)}$$$RNA1{StrandType:ss}|RNA2{StrandType:as}$” displayed a target mRNA knockdown of 78%.
Consider “RNA1{r(A)p.r(A)p.r(G)p.r(G)p.r(A)p.r(G)p.r(A)p.m(U)p.m(C)p.r(A)p.r(A)p.m(C)p.r(A)p.m(U)p.m(U)p.m(U)p.m(U)p.m(C)p.r(A)p.r(T)p.r(T)}|RNA2{m(U)p.r(G)p.r(A)p.r(A)p.r(A)p.r(A)p.m(U)p.r(G)p.r(U)p.r(U)p.r(G)p.r(A)p.m(U)p.m(C)p.m(U)p.m(C)p.m(C)p.m(U)p.m(U)p.r(T)p.r(T)}$$$RNA1{StrandType:ss}|RNA2{StrandType:as}$”, for which the target mRNA knockdown is 53% and 74%.
In the case of “RNA1{r(G)p.r(U)p.r(A)p.r(U)p.r(G)p.r(A)p.r(C)p.r(C)p.r(G)p.r(A)p.r(C)p.r(U)p.r(A)p.r(C)p.r(G)p.r(C)p.r(G)p.r(U)p.r(A)p.r(T)p.r(T)}|RNA2{r(U)p.r(U)p.r(C)p.r(A)p.r(G)p.r(U)p.[una](G)p.r(U)p.r(G)p.r(A)p.r(U)p.r(G)p.r(A)p.r(C)p.r(A)p.r(C)p.r(U)p.r(U)p.r(G)p.r(T)p.r(T)}$$$RNA1{StrandType:ss}|RNA2{StrandType:as}$” it was 86%.
In the case of “RNA1{r(C)p.r(U)p.r(U)p.r(A)p.r(C)p.r(G)p.r(C)p.r(U)p.r(G)p.r(A)p.r(G)p.r(U)p.r(A)p.r(C)p.r(U)p.r(U)p.r(C)p.r(G)p.r(A)p.r(T)p.r(T)}|RNA2{r(T)p.r(C)p.r(G)p.r(A)p.r(A)p.r(G)p.r(U)p.r(A)p.r(C)p.r(U)p.r(C)p.r(A)p.r(G)p.r(C)p.r(G)p.r(U)p.r(A)p.[lna](A)p.r(G)p.[lna](T)p.[lna](T)}$$$RNA1{StrandType:ss}|RNA2{StrandType:as}$” it was 95%.
In the case of “RNA1{r(A)p.r(G)p.r(C)p.r(G)p.r(A)p.r(U)p.r(C)p.r(C)p.r(C)p.m(G)p.r(A)p.r(A)p.m(C)p.r(A)p.r(A)p.r(G)p.m(U)p.r(A)p.r(U)p.r(T)p.r(T)}|RNA2{r(A)p.m(U)p.r(A)p.r(C)p.r(U)p.m(U)p.r(G)p.r(U)p.r(U)p.r(C)p.r(G)p.r(G)p.r(G)p.r(A)p.r(U)p.r(C)p.r(G)p.r(C)p.r(U)p.r(T)p.r(T)}$$$RNA1{StrandType:ss}|RNA2{StrandType:as}$” it was 84%.
